This note sets out measurements from patent US20230096766A1, “AMINO ACID HAVING FUNCTIONAL GROUP CAPABLE OF INTERMOLECULAR HYDROGEN BONDING, PEPTIDE COMPOUND CONTAINING SAME AND METHOD FOR PRODUCTION THEREOF” (Chugai Seiyaku Kabushiki Kaisha, priority 2018, published 2023).

As a reminder, the Papp is the rate of passage across a membrane or cell layer, normalised by area and donor concentration.

*1 amine or outer side, *2 acyl side, *3 side chain or, on linkers, in order; H or OH if unused. Where a SMILES comes first, the peptide text is derived from it. Bridges are numbered along the chain shown (N, C = ends). [ ]: non-standard residue; d: D form. The star is where a group is joined. ξ: configuration not given here. NMeHph(3-OMe-4-CONHMe) = CNC(=O)c1ccc(CC[C@H](NC)C(=O)O)cc1OC; hPhe(3-OMe,4-CONHMe) = CNC(=O)c1ccc(CC[C@H](N)C(=O)O)cc1OC; X11 = CNC(=O)c1ccc(CCN(CC(=O)[*:2])[*:1])cc1OC; Tyr(3-F) = N[C@@H](Cc1ccc(O)c(F)c1)C(=O)O; NMehPhe = CN[C@@H](CCc1ccccc1)C(=O)O; X7 = O=C(C[C@H](COCCO)N[*:1])[*:2]; X6 = O=C([C@H](CCCCO)N[*:1])[*:2]; NMeF = CN[C@@H](Cc1ccccc1)C(=O)O; NMeGABA = CN(CCCC(=O)[*:2])[*:1]; NMeI = CC[C@H](C)[C@H](NC)C(=O)O; NMeL = CN[C@@H](CC(C)C)C(=O)O; Butyl(3R-OH) = C[C@@H](O)CC*; Propyl(2R-OH) = C[C@@H](O)C*; ξNMeF = CNC(Cc1ccccc1)C(=O)O; NMeV = CN[C@H](C(=O)O)C(C)C; NMeAbu = CC[C@H](NC)C(=O)O; NMeA = CN[C@@H](C)C(=O)O; Piperidide = C1CCN(*)CC1; CH2CMe2OH = CC(C)(O)C*; NBuGly = CCCCNCC(=O)O; NPrGly = CCCNCC(=O)O; Sar = CNCC(=O)O; tBu = CC(C)(C)*

The first series is described as follows: in vitro. Particulars: human, Caco-2, Caco-2 (cm/sec).
The molecule `CNC(=O)c1ccc(CC[C@H]2C(=O)N(C)[C@@H](CC(C)C)C(=O)N[C@@H]([C@@H](C)O)C(=O)N(C)CC(=O)N(C)[C@@H](CC(C)C)C(=O)N[C@H](C(=O)N3CCCCC3)CC(=O)N(C)[C@@H](C)C(=O)N[C@@H](CC(C)C)C(=O)N(C)[C@@H](CC(C)C)C(=O)N(C)[C@@H](Cc3ccccc3)C(=O)N[C@@H](CC(C)C)C(=O)N2C)cc1OC` [AP230] ([NMeA]L[NMeL][NMeF]L[NMeHph(3-OMe-4-CONHMe)][NMeL]T[Sar][NMeL]D-Piperidide; lactam N-11) had an apparent permeability coefficient (Papp) of 0.96 ×10⁻⁶ cm/s.

Turning to `CC[C@H](C)[C@@H]1NC(=O)[C@H](CC(C)C)N(C)C(=O)[C@@H](C)NC(=O)C[C@@H](C(=O)N2CCCCC2)NC(=O)[C@H](CC(C)C)N(C)C(=O)[C@H](Cc2ccccc2)N(C)C(=O)[C@H](COC(C)(C)C)NC(=O)[C@H](CC(C)C)N(C)C(=O)[C@H](CC)N(C)C(=O)[C@H]([C@@H](C)O)NC(=O)CN(CCc2ccc(C(=O)NC)c(OC)c2)C1=O` [AP222] ([dA][NMeL]I[X11]T[NMeAbu][NMeL]S(tBu)[NMeF][NMeL]D-Piperidide; lactam N-11), the Papp stood at 0.31 ×10⁻⁶ cm/s.

Molecule `CC(C)C[C@@H]1NC(=O)[C@H](CC(C)C)N(C)C(=O)[C@H](C)N(C)C(=O)[C@@H](C(C)C)NC(=O)C[C@@H](C(=O)N2CCCCC2)NC(=O)[C@H]([C@@H](C)O)NC(=O)[C@H](C)N(C)C(=O)[C@H](C)N(C)C(=O)[C@H](CC(C)C)N(C)C(=O)[C@H](Cc2ccc(O)c(F)c2)NC(=O)[C@H](Cc2ccccc2)N(C)C1=O` [pd113] ([dV][NMeA][NMeL]L[NMeF][Tyr(3-F)][NMeL][NMeA][NMeA]TD-Piperidide; lactam N-11) returned an apparent permeability (Papp) of 0.029 ×10⁻⁶ cm/s. This Papp is about 11-fold lower than that of the molecule before.

In the case of `CC[C@H]1C(=O)N[C@@H](CC(C)C)C(=O)N(C)[C@@H](CC(C)C)C(=O)N(C)C(Cc2ccccc2)C(=O)N[C@@H](CCc2ccc(C(=O)NC)c(OC)c2)C(=O)N(C)[C@@H](CC(C)C)C(=O)N(C)[C@@H](CC(C)C)C(=O)N[C@@H]([C@@H](C)O)C(=O)N(C)CC(=O)N(C)[C@@H](CC(C)C)C(=O)N[C@H](C(=O)N2CCCCC2)CC(=O)N1C` (stereo partly drawn) [AP204] ([NMeAbu]L[NMeL][ξNMeF][hPhe(3-OMe,4-CONHMe)][NMeL][NMeL]T[Sar][NMeL]D-Piperidide; lactam N-11), the Papp turned out to be 1.6 ×10⁻⁶ cm/s.

The molecule `CC(C)C[C@@H]1NC(=O)[C@H](CCc2ccccc2)N(C)C(=O)[C@H](CCc2ccccc2)N(C)C(=O)[C@H](CCCCO)NC(=O)[C@H](C(C)C)N(C)C(=O)CCCN(C)C(=O)C[C@@H](C(=O)N2CCCCC2)NC(=O)[C@H](CC(C)C)N(C)C(=O)[C@H](CC(C)C)N(C)C(=O)[C@H]([C@@H](C)O)NC(=O)[C@H](CC(C)C)N(C)C1=O` [Compound B03] ([NMeGABA][NMeV][X6][NMehPhe][NMehPhe]L[NMeL]T[NMeL][NMeL]D-Piperidide; lactam N-11) registered a Papp of 0.27 ×10⁻⁶ cm/s.

In turn, `CCCN1CC(=O)N(C)[C@@H](Cc2ccccc2)C(=O)N[C@@H]([C@@H](C)CC)C(=O)N(C)[C@@H](CC(C)C)C(=O)N[C@@H]([C@@H](C)O)C(=O)N(CCC)CC(=O)N(C)[C@@H](Cc2ccccc2)C(=O)N(C)[C@@H](CC(C)C)C(=O)N[C@@H](COCC(C)(C)O)C(=O)N(C)[C@@H](C(C)C)C(=O)N[C@H](C(=O)N2CCCCC2)CC1=O` [AP09] ([NPrGly][NMeF]I[NMeL]T[NPrGly][NMeF][NMeL]S(CH2CMe2OH)[NMeV]D-Piperidide; lactam N-11) yielded a Papp of 1.1 ×10⁻⁶ cm/s.

In turn, `CC[C@H](C)[C@@H]1NC(=O)[C@H](CC(C)C)N(C)C(=O)[C@H](COC[C@@H](C)O)NC(=O)[C@H](Cc2ccccc2)N(C)C(=O)CN(C)C(=O)C[C@@H](C(=O)N2CCCCC2)NC(=O)[C@H](CC(C)C)N(C)C(=O)[C@H](COC(C)(C)C)NC(=O)[C@H](CC(C)C)N(C)C(=O)[C@H](Cc2ccccc2)N(C)C(=O)CN(C)C1=O` [AP88] ([Sar][NMeF]S(Propyl(2R-OH))[NMeL]I[Sar][NMeF][NMeL]S(tBu)[NMeL]D-Piperidide; lactam N-11) came in with a Papp of 3.3 ×10⁻⁶ cm/s.

As to `CC[C@H](C)[C@@H]1NC(=O)[C@H](CC(C)C)N(C)C(=O)[C@@H](C)NC(=O)C[C@@H](C(=O)N2CCCCC2)NC(=O)[C@H](C)N(C)C(=O)[C@H](Cc2ccccc2)N(C)C(=O)[C@H](COC(C)(C)C)NC(=O)[C@H](CC(C)C)N(C)C(=O)CN(C)C(=O)[C@H](Cc2ccc(O)c(F)c2)NC(=O)[C@H](CC(C)C)N(C)C1=O` [pd124] ([dA][NMeL]I[NMeL][Tyr(3-F)][Sar][NMeL]S(tBu)[NMeF][NMeA]D-Piperidide; lactam N-11), the apparent permeability (Papp) was 0.32 ×10⁻⁶ cm/s.

The molecule `CCCCN1CC(=O)N(C)[C@@H](C(C)C)C(=O)N[C@@H](COC(C)(C)C)C(=O)N(C)[C@@H](Cc2ccccc2)C(=O)N(C)[C@@H](CC(C)C)C(=O)N[C@H](C(=O)N2CCCCC2)CC(=O)N[C@H](C(C)C)C(=O)N(C)[C@@H](Cc2ccccc2)C(=O)N[C@@H](COCC[C@@H](C)O)C(=O)N(C)[C@@H](CC(C)C)C(=O)N[C@@H]([C@@H](C)O)C1=O` [AP108] ([dV][NMeF]S(Butyl(3R-OH))[NMeL]T[NBuGly][NMeV]S(tBu)[NMeF][NMeL]D-Piperidide; lactam N-11) yielded an apparent permeability (Papp) of 0.81 ×10⁻⁶ cm/s.

`CC[C@H](C)[C@H]1C(=O)N[C@@H](Cc2ccc(O)cc2)C(=O)N(C)CC(=O)N(C)[C@@H](CC(C)C)C(=O)N[C@H](C(=O)N2CCCCC2)CC(=O)N(C)[C@@H](C)C(=O)N[C@@H](CC(C)C)C(=O)N(C)[C@@H](C)C(=O)N(C)[C@@H](Cc2ccccc2)C(=O)N[C@@H](C(C)C)C(=O)N(C)[C@@H](C)C(=O)N1C` [pd116] ([NMeA]L[NMeA][NMeF]V[NMeA][NMeI]Y[Sar][NMeL]D-Piperidide; lactam N-11) displayed a Papp of 0.14 ×10⁻⁶ cm/s.

`CCCN1CC(=O)N(C)[C@@H](CC(C)C)C(=O)N[C@H](C(=O)N2CCCCC2)CC(=O)N(C)[C@@H](CC(C)C)C(=O)N[C@@H](Cc2ccccc2)C(=O)N(C)[C@@H](CC(C)C)C(=O)N(C)[C@@H](CC(C)C)C(=O)N[C@@H](COCCO)CC(=O)N(C)[C@@H](Cc2ccccc2)C(=O)N(C)[C@@H](CC(C)C)C(=O)N[C@@H]([C@@H](C)O)C1=O` [AP24] ([NMeL]F[NMeL][NMeL][X7][NMeF][NMeL]T[NPrGly][NMeL]D-Piperidide; lactam N-11): the Papp is 0.42 ×10⁻⁶ cm/s.

For the molecule `CC(C)C[C@H]1C(=O)N[C@H](C(=O)N2CCCCC2)CC(=O)N(C)CCCC(=O)N(C)[C@@H](CC(C)C)C(=O)N[C@@H](Cc2ccc(O)c(F)c2)C(=O)N(C)[C@@H](CC(C)C)C(=O)N(C)[C@@H](Cc2ccccc2)C(=O)N[C@@H](COC(C)(C)C)C(=O)N(C)[C@@H](CC(C)C)C(=O)N[C@@H]([C@@H](C)O)C(=O)N(C)CC(=O)N1C` [pd114] ([NMeGABA][NMeL][Tyr(3-F)][NMeL][NMeF]S(tBu)[NMeL]T[Sar][NMeL]D-Piperidide; lactam N-11), the apparent permeability coefficient (Papp) worked out at 0.17 ×10⁻⁶ cm/s.

The series is the same for the next values; noted with them: human, Caco-2, Caco-2 (cm/sec) Papp.
In the case of `CC(C)C[C@H]1C(=O)NCC(=O)N[C@H](C(=O)N(C)[C@@H](Cc2ccccc2)C(=O)N(C)[C@@H](Cc2ccccc2)C(=O)N[C@@H](C)C(=O)N2CCCCC2)CC(=O)N[C@@H](C)C(=O)N[C@@H]([C@@H](C)O)C(=O)N(C)[C@@H](C)C(=O)N(C)[C@@H](Cc2ccccc2)C(=O)N[C@@H](C(C)C)C(=O)N(C)[C@@H](Cc2ccccc2)C(=O)N1C` [pd247] (AT[NMeA][NMeF]V[NMeF][NMeL]GD[NMeF][NMeF]A-Piperidide; lactam N-9), the Papp stood at 0.087 ×10⁻⁶ cm/s.
